Experimental data as given in patent publication US10766890B2, “Hepatitis B core protein modulators” (Assembly Biosciences, Inc., priority 2015, dated 2020).

Assays:
AD38 cells = assay: Viability of AD38 cells, Promega CellTiter-Glo; format: cell-based; details: 10 μM compound, 6 days, CellTiter-Glo luminescence, controls being 100%
Description: (§1) Example 63: Assay Measuring Activity of Compounds on Viral Production in and on Viability of AD38 Cells
(§2) AD38 cells were then re-suspended with 10 mL of Treatment Medium and counted. Wells of a collagen coated 96-well NUNC microtiter plate were seeded at 50,000/well in 180 μL of Treatment Medium, and 20 μL of in treatment media with either 10% DMSO (Control) or a 10× solution of compound in 10% DMSO was added. Plates were incubated for 6 days at 37° C.
At the end of compound treatment period cell viability was assessed using a Promega CellTiter-Glo protocol. All supernatant was removed the previously treated 96-well microtiter plate, and 50 μL Tetracycline-free treatment medium (DMEM/F12 (1:1), 1×Pen/step (cat#: 30-002-CL, Mediatech, Inc), with 2% FBS, Tet-system approved (cat#: 631106, Clontech), and 1% DMSO was added back to each well. Another 50 μL of CellTiter-Glo reagent solution (Promega, G7573) was then added at room temperature and the contents mixed for 2 minutes on an orbital shaker to induce cell lysis. This was followed by incubation at room temperature for 10 minutes to stabilize the luminescent signal. The luminescence was recorded for 0.2 seconds per well on a Tecan multimode platereader (Infinite M1000 pro). The luminescent signal from each well was normalized against that of untreated (DMSO) control wells. All results in Table 3 were reported with percent viability (with controls being 100%).

HBV = assay: Viral load production in AD38 cells, quantitative PCR of the core sequence in supernatant; format: cell-based; details: Hepatitis B virus, 144 h, 10 μM compound, 6 days at 37° C., supernatant qPCR vs DMSO control, read-out: AD38 Viral Load (%) (VL with cmpd/VL in DMSO control) at 10 μM
Description: as §1, §2
Viral load production was assayed by quantitative PCR of the core sequence. […] The PCR mixture was incubated at 45° C. for 5 minutes, then 95° C. for 10 min, followed by 40 cycles of 10 seconds at 95° C. and 20 seconds at 60° C. Viral load was quantitated against known standards by using ViiA™ 7 Software. Viral load in the supernatant from wells with treated cells were compared against viral load in supernatant from DMSO control wells (≥3 per plate).

Structure (SMILES)	AD38 Viability Normalized Result (cmpd/DMSO %) at 10 μM (AD38 cells) [%]	activity at 10 µM (HBV) [%]
COc1cccc(Sc2cccc(CNC(=O)c3ccc4c(c3)NC(=O)c3ccccc3S4(=O)=O)c2)c1 [Compound 812-A, N-(3-((3-methoxyphenyl)thio)benzyl)-11-oxo-10,11-dihydrodibenzo[b,f][1,4]thiazepine-8-carboxamide 5,5-dioxide]	66	1.4
COc1ccc(Sc2cccc(CNC(=O)c3ccc4c(c3)NC(=O)c3ccccc3S4(=O)=O)c2)cc1 [Compound 813, N-(3-((4-methoxyphenyl)thio)benzyl)-11-oxo-10,11-dihydrodibenzo[b,f][1,4]thiazepine-8-carboxamide 5,5-dioxide]	44	1.2
